In paper PMC5218480 (PLoS ONE, 2017):

Test system: MV-4-11 cells
Assay: Gene expression microarray analysis (Affymetrix PrimeView) and GSEA
Format: cell-based, human
Parameters: RFU PODN (11730768_x_at) / Fold change /veh PODN (11730768_x_at) / RFU LINC00158 (11744669_a_at) / Fold change /veh LINC00158 (11744669_a_at) / RFU DUSP10 (11751237_a_at) / Fold change /veh DUSP10 (11751237_a_at) / RFU ID3 (11757404_x_at) / Fold change /veh ID3 (11757404_x_at) / RFU PLEKHG5 (11737974_s_at) / Fold change /veh PLEKHG5 (11737974_s_at) / RFU LRRC4B (11730491_at) / Fold change /veh LRRC4B (11730491_at) / RFU GIMAP4 (11747438_a_at) / Fold change /veh GIMAP4 (11747438_a_at) / RFU KRT8 (11758183_x_at) / Fold change /veh KRT8 (11758183_x_at) / RFU CNN1 (11734310_a_at) / Fold change /veh CNN1 (11734310_a_at) / RFU VPS37D (11726825_at) / Fold change /veh VPS37D (11726825_at) / RFU C10orf10 (11716522_x_at) / Fold change /veh C10orf10 (11716522_x_at) / RFU KIR2DL2 /// KIR2DL4 /// KIR2DL5A /// KIR2DL5B /// KIR2DS1 /// KIR2DS2 /// KIR2DS3 /// KIR2DS4 /// KIR3DL3 /// KIR3DL3 /// KIR3DS1 (11738374_at) / Fold change /veh KIR2DL2 /// KIR2DL4 /// KIR2DL5A /// KIR2DL5B /// KIR2DS1 /// KIR2DS2 /// KIR2DS3 /// KIR2DS4 /// KIR3DL3 /// KIR3DL3 /// KIR3DS1 (11738374_at) / RFU C1QL1 (11718748_at) / Fold change /veh C1QL1 (11718748_at) / RFU TMPRSS4 (11747572_a_at) / Fold change /veh TMPRSS4 (11747572_a_at) / RFU HAMP (11756126_x_at) / Fold change /veh HAMP (11756126_x_at) / RFU RNFT2 (11725882_a_at) / Fold change /veh RNFT2 (11725882_a_at) / RFU NR4A2 (11747474_a_at) / Fold change /veh NR4A2 (11747474_a_at) / RFU ABCC12 (11746883_a_at) / Fold change /veh ABCC12 (11746883_a_at) / RFU TMEM136 (11760407_x_at) / Fold change /veh TMEM136 (11760407_x_at) / RFU CLDN22 /// WWC2 (11732394_at) / Fold change /veh CLDN22 /// WWC2 (11732394_at) / RFU HLA-DPB1 (11760878_x_at) / Fold change /veh HLA-DPB1 (11760878_x_at) / RFU SPINT1 (11716480_a_at) / Fold change /veh SPINT1 (11716480_a_at) / RFU GAP43 (11754022_s_at) / Fold change /veh GAP43 (11754022_s_at) / RFU A4GNT (11735810_at) / Fold change /veh A4GNT (11735810_at) / RFU PRB3 (11715151_x_at) / Fold change /veh PRB3 (11715151_x_at) / RFU TUBB4B (11761932_at) / Fold change /veh TUBB4B (11761932_at) / RFU CAPN14 (11732068_a_at) / Fold change /veh CAPN14 (11732068_a_at) / RFU TMCC2 (11721928_a_at) / Fold change /veh TMCC2 (11721928_a_at) / RFU IRGQ (11745062_a_at) / Fold change /veh IRGQ (11745062_a_at) / RFU FAM174B (11720279_a_at) / Fold change /veh FAM174B (11720279_a_at) / RFU TMPRSS4 (11748680_a_at) / Fold change /veh TMPRSS4 (11748680_a_at) / RFU FAM212B (11763350_a_at) / Fold change /veh FAM212B (11763350_a_at) / RFU PLEKHG5 (11743358_a_at) / Fold change /veh PLEKHG5 (11743358_a_at) / RFU ZSCAN30 (11745921_a_at) / Fold change /veh ZSCAN30 (11745921_a_at) / RFU CMKLR1 (11741424_a_at) / Fold change /veh CMKLR1 (11741424_a_at) / RFU LOC101060620 /// MAPK8IP1 (11723275_at) / Fold change /veh LOC101060620 /// MAPK8IP1 (11723275_at) / RFU SPTSSB (11747773_x_at) / Fold change /veh SPTSSB (11747773_x_at) / RFU PRSS12 (11739890_at) / Fold change /veh PRSS12 (11739890_at) / RFU BIN1 (11741810_x_at) / Fold change /veh BIN1 (11741810_x_at) / RFU WNT11 (11732464_a_at) / Fold change /veh WNT11 (11732464_a_at) / RFU C10orf10 (11716521_a_at) / Fold change /veh C10orf10 (11716521_a_at) / RFU C5orf56 (11738089_at) / Fold change /veh C5orf56 (11738089_at) / RFU CYB561 (11721691_x_at) / Fold change /veh CYB561 (11721691_x_at) / RFU ANKRD19P (11752326_a_at) / Fold change /veh ANKRD19P (11752326_a_at) / RFU OR2T12 /// OR2T33 /// OR2T8 (11738714_s_at) / Fold change /veh OR2T12 /// OR2T33 /// OR2T8 (11738714_s_at) / RFU VCAN (11748164_a_at) / Fold change /veh VCAN (11748164_a_at) / RFU JSRP1 (11732532_at) / Fold change /veh JSRP1 (11732532_at) / RFU KRTAP10-11 (11738290_x_at) / Fold change /veh KRTAP10-11 (11738290_x_at) / RFU MYO3A (11730013_a_at) / Fold change /veh MYO3A (11730013_a_at) / RFU EBF3 (11725865_a_at) / Fold change /veh EBF3 (11725865_a_at) / RFU CAMK2N1 (11719241_x_at) / Fold change /veh CAMK2N1 (11719241_x_at) / RFU C5orf56 (11738088_a_at) / Fold change /veh C5orf56 (11738088_a_at) / RFU OLFML3 (11715873_a_at) / Fold change /veh OLFML3 (11715873_a_at) / RFU LOC100653217 /// NTM (11731650_a_at) / Fold change /veh LOC100653217 /// NTM (11731650_a_at) / RFU MAPK11 (11762145_a_at) / Fold change /veh MAPK11 (11762145_a_at) / RFU FIZ1 (11724087_x_at) / Fold change /veh FIZ1 (11724087_x_at) / RFU OASL (11726364_x_at) / Fold change /veh OASL (11726364_x_at) / RFU SOX15 (11748057_x_at) / Fold change /veh SOX15 (11748057_x_at) / RFU CD79A (11719716_a_at) / Fold change /veh CD79A (11719716_a_at) / RFU HIST1H1D (11736915_at) / Fold change /veh HIST1H1D (11736915_at) / RFU CASKIN2 (11723855_a_at) / Fold change /veh CASKIN2 (11723855_a_at) / RFU LOC730098 (11760151_x_at) / Fold change /veh LOC730098 (11760151_x_at) / RFU OR4N2 (11742367_at) / Fold change /veh OR4N2 (11742367_at) / RFU PRRT2 (11749266_a_at) / Fold change /veh PRRT2 (11749266_a_at) / RFU SNX32 (11753110_a_at) / Fold change /veh SNX32 (11753110_a_at) / RFU CDHR5 (11726645_a_at) / Fold change /veh CDHR5 (11726645_a_at) / RFU RCAN1 (11760418_a_at) / Fold change /veh RCAN1 (11760418_a_at) / RFU FAM167A (11723789_a_at) / Fold change /veh FAM167A (11723789_a_at) / RFU FAM26E (11764081_at) / Fold change /veh FAM26E (11764081_at) / RFU ISYNA1 (11749810_s_at) / Fold change /veh ISYNA1 (11749810_s_at) / RFU ACY1 (11761880_at) / Fold change /veh ACY1 (11761880_at) / RFU 11764098_at / Fold change /veh 11764098_at / RFU SAMD14 (11745864_x_at) / Fold change /veh SAMD14 (11745864_x_at) / RFU NPB (11741838_a_at) / Fold change /veh NPB (11741838_a_at) / RFU TMPRSS6 (11731388_a_at) / Fold change /veh TMPRSS6 (11731388_a_at) / RFU KRTAP10-2 (11738614_at) / Fold change /veh KRTAP10-2 (11738614_at) / RFU ARHGAP8 /// PRR5-ARHGAP8 (11727945_x_at) / Fold change /veh ARHGAP8 /// PRR5-ARHGAP8 (11727945_x_at) / RFU KRTAP5-7 /// NADSYN1 (11734609_at) / Fold change /veh KRTAP5-7 /// NADSYN1 (11734609_at) / RFU RASL12 (11751679_a_at) / Fold change /veh RASL12 (11751679_a_at) / RFU CDKN2B (11736163_a_at) / Fold change /veh CDKN2B (11736163_a_at) / RFU PRF1 (11729649_at) / Fold change /veh PRF1 (11729649_at) / RFU, ZNF638 /// ZNF638-IT1 / Fold change vs veh, ZNF638 /// ZNF638-IT1 / RFU, PANK3 / Fold change vs veh, PANK3 / RFU, SH3YL1 / Fold change vs veh, SH3YL1 / RFU, ZEB2 / Fold change vs veh, ZEB2 / RFU, NRIP1 / Fold change vs veh, NRIP1 / RFU, PTTG1IP / Fold change vs veh, PTTG1IP / RFU, CAPN2 / Fold change vs veh, CAPN2 / RFU, MED14 / Fold change vs veh, MED14 / RFU, SNORA58 / Fold change vs veh, SNORA58 / RFU, C1orf63 / Fold change vs veh, C1orf63 / RFU, LRRFIP1 / Fold change vs veh, LRRFIP1 / RFU, NDUFAF7 / Fold change vs veh, NDUFAF7 / RFU, SLC12A2 / Fold change vs veh, SLC12A2 / RFU, IBTK / Fold change vs veh, IBTK / RFU, ESF1 / Fold change vs veh, ESF1 / Fold change vs veh, TMEM50B / RFU, TAOK1 / Fold change vs veh, TAOK1 / RFU, ACBD3 / Fold change vs veh, ACBD3 / RFU, TMA16 / Fold change vs veh, TMA16 / RFU, RWDD3 / Fold change vs veh, RWDD3 / RFU, BCAT1 / Fold change vs veh, BCAT1 / RFU, EDEM3 / Fold change vs veh, EDEM3 / RFU, TMEM33 / Fold change vs veh, TMEM33 / RFU, WDR75 / Fold change vs veh, WDR75 / RFU, AHCTF1 / Fold change vs veh, AHCTF1 / RFU, TFRC / Fold change vs veh, TFRC / RFU, ZDHHC17 / Fold change vs veh, ZDHHC17 / RFU, NOM1 / Fold change vs veh, NOM1 / RFU, ARL8B / Fold change vs veh, ARL8B / RFU, ZBTB11 / Fold change vs veh, ZBTB11 / RFU, TAMM41 / Fold change vs veh, TAMM41 / RFU, KIAA1704 /// LOC100996395 / Fold change vs veh, KIAA1704 /// LOC100996395 / RFU, ING1 / Fold change vs veh, ING1 / RFU, TRMT61B / Fold change vs veh, TRMT61B / RFU, FUBP3 / Fold change vs veh, FUBP3 / RFU, TP53 / Fold change vs veh, TP53 / RFU, TNKS2 / Fold change vs veh, TNKS2 / RFU, ZFP14 / Fold change vs veh, ZFP14 / RFU, ACTR2 / Fold change vs veh, ACTR2 / RFU, PPP3R1 / Fold change vs veh, PPP3R1 / RFU, PIK3R1 / Fold change vs veh, PIK3R1 / RFU, HNRNPA1 / Fold change vs veh, HNRNPA1 / RFU, RNF170 / Fold change vs veh, RNF170 / RFU, ZNF28 / Fold change vs veh, ZNF28 / RFU, RNGTT / Fold change vs veh, RNGTT / RFU, OGT / Fold change vs veh, OGT / RFU, BRD1 / Fold change vs veh, BRD1 / RFU, MARS / Fold change vs veh, MARS / RFU, ZNF655 / Fold change vs veh, ZNF655 / RFU, FAHD1 / Fold change vs veh, FAHD1 / RFU, BDP1 / Fold change vs veh, BDP1 / RFU, LRRCC1 / Fold change vs veh, LRRCC1 / RFU, ARID1A / Fold change vs veh, ARID1A / RFU, ZNF146 / Fold change vs veh, ZNF146 / RFU, ZNF330 / Fold change vs veh, ZNF330 / RFU, GPN3 / Fold change vs veh, GPN3 / RFU, C9orf123 / Fold change vs veh, C9orf123 / RFU, N4BP2L2 / Fold change vs veh, N4BP2L2 / RFU, ARFIP1 / Fold change vs veh, ARFIP1 / RFU, FAM179B / Fold change vs veh, FAM179B / RFU, BCL10 / Fold change vs veh, BCL10 / RFU, UHRF1BP1L / Fold change vs veh, UHRF1BP1L / RFU, BET1 / Fold change vs veh, BET1 / RFU, CNOT2 / Fold change vs veh, CNOT2 / RFU, ZNF268 / Fold change vs veh, ZNF268 / Fold change vs veh, ZNF507 / RFU, DGCR2 / Fold change vs veh, DGCR2 / RFU, WDSUB1 / Fold change vs veh, WDSUB1 / Fold change vs veh, HSP90B1 /// MIR3652 / RFU, ADSS / Fold change vs veh, ADSS / RFU, GK / Fold change vs veh, GK / RFU, ZNF148 / Fold change vs veh, ZNF148 / RFU, TAF9 / Fold change vs veh, TAF9 / RFU, SLC1A5 / Fold change vs veh, SLC1A5 / RFU, SLMO2 / Fold change vs veh, SLMO2 / RFU, ABCC4 / Fold change vs veh, ABCC4 / RFU, LOC101060439 /// RAP1B / Fold change vs veh, LOC101060439 /// RAP1B / RFU, RFX7 / Fold change vs veh, RFX7 / RFU, GTPBP10 / Fold change vs veh, GTPBP10 / RFU, CNEP1R1 / Fold change vs veh, CNEP1R1 / RFU, BIVM-ERCC5 /// ERCC5 / Fold change vs veh, BIVM-ERCC5 /// ERCC5 / RFU, ILF3 / Fold change vs veh, ILF3 / RFU 11762660_at / Fold change /veh 11762660_at / RFU VCAN (11757783_s_at) / Fold change /veh VCAN (11757783_s_at) / RFU DDX43 (11728927_at) / Fold change /veh DDX43 (11728927_at) / RFU KRT8 (11758188_x_at) / Fold change /veh KRT8 (11758188_x_at) / RFU NKD1 (11759106_at) / Fold change /veh NKD1 (11759106_at) / RFU SRD5A1 (11742802_a_at) / Fold change /veh SRD5A1 (11742802_a_at) / RFU TPSAB1 /// TPSB2 (11721975_s_at) / Fold change /veh TPSAB1 /// TPSB2 (11721975_s_at) / RFU GSTM3 (11746129_a_at) / Fold change /veh GSTM3 (11746129_a_at) / RFU IL23R (11737362_x_at) / Fold change /veh IL23R (11737362_x_at) / RFU TMEM51 (11727254_a_at) / Fold change /veh TMEM51 (11727254_a_at) / RFU PIWIL2 (11732686_x_at) / Fold change /veh PIWIL2 (11732686_x_at) / RFU ORM1 (11744905_x_at) / Fold change /veh ORM1 (11744905_x_at) / RFU CCDC152 (11743942_at) / Fold change /veh CCDC152 (11743942_at) / RFU ECM1 (11717891_a_at) / Fold change /veh ECM1 (11717891_a_at) / RFU IL23R (11748794_a_at) / Fold change /veh IL23R (11748794_a_at) / RFU TNFAIP8L3 (11732012_x_at) / Fold change /veh TNFAIP8L3 (11732012_x_at) / RFU MBOAT4 (11741988_at) / Fold change /veh MBOAT4 (11741988_at) / RFU 11764193_at / Fold change /veh 11764193_at / RFU TMEM53 (11763286_at) / Fold change /veh TMEM53 (11763286_at) / RFU MAGEB2 (11727129_at) / Fold change /veh MAGEB2 (11727129_at) / RFU TMEM200A (11744735_a_at) / Fold change /veh TMEM200A (11744735_a_at) / RFU CCDC152 (11751479_a_at) / Fold change /veh CCDC152 (11751479_a_at) / RFU FAM211A (11726209_a_at) / Fold change /veh FAM211A (11726209_a_at) / RFU RGS16 (11746705_a_at) / Fold change /veh RGS16 (11746705_a_at) / RFU VCAN (11755009_s_at) / Fold change /veh VCAN (11755009_s_at) / RFU RHOB (11743442_s_at) / Fold change /veh RHOB (11743442_s_at) / RFU RGS16 (11720943_a_at) / Fold change /veh RGS16 (11720943_a_at) / RFU RGS16 (11720944_at) / Fold change /veh RGS16 (11720944_at) / RFU, VPS4B / Fold change vs veh, VPS4B / RFU, CREB1 / Fold change vs veh, CREB1 / RFU, DNAJC13 / Fold change vs veh, DNAJC13 / RFU, GNAQ / Fold change vs veh, GNAQ / RFU, CDK5R1 / Fold change vs veh, CDK5R1 / RFU, ZRANB3 / Fold change vs veh, ZRANB3 / RFU, CUL4A / Fold change vs veh, CUL4A / RFU, CCNY / Fold change vs veh, CCNY / RFU, UFL1 / Fold change vs veh, UFL1 / RFU, COG3 / Fold change vs veh, COG3 / RFU, DIAPH2 / Fold change vs veh, DIAPH2 / RFU, SKA2 / Fold change vs veh, SKA2 / RFU, AFF3 / Fold change vs veh, AFF3 / RFU, LMF1 / Fold change vs veh, LMF1 / RFU, IPO11 / Fold change vs veh, IPO11 / RFU, DFFB / Fold change vs veh, DFFB / RFU, FOXP1 / Fold change vs veh, FOXP1 / RFU, CARD8 / Fold change vs veh, CARD8 / RFU, STRN3 / Fold change vs veh, STRN3 / RFU, ADK / Fold change vs veh, ADK / RFU, RASSF2 / Fold change vs veh, RASSF2 / RFU, WIPF1 / Fold change vs veh, WIPF1 / RFU, LARP1B / Fold change vs veh, LARP1B / RFU, RASA1 / Fold change vs veh, RASA1 / RFU, RB1 / Fold change vs veh, RB1 / RFU, PPFIA1 / Fold change vs veh, PPFIA1 / RFU, MAT2A / Fold change vs veh, MAT2A / RFU, CCT5 / Fold change vs veh, CCT5 / RFU, WDR92 / Fold change vs veh, WDR92 / RFU, CUX1 / Fold change vs veh, CUX1 / RFU, TTC7A / Fold change vs veh, TTC7A / RFU, TMEM135 / Fold change vs veh, TMEM135 / RFU, DEPTOR / Fold change vs veh, DEPTOR / RFU, CPM / Fold change vs veh, CPM / RFU, DNAJB6 / Fold change vs veh, DNAJB6 / RFU, CACNA2D3 / Fold change vs veh, CACNA2D3 / RFU, DTX4 / Fold change vs veh, DTX4 / RFU, TFCP2 / Fold change vs veh, TFCP2 / RFU, GMCL1 /// GMCL1P1 / Fold change vs veh, GMCL1 /// GMCL1P1 / RFU, AEBP2 / Fold change vs veh, AEBP2 / RFU, SNHG1 /// SNORD22 /// SNORD25 /// SNORD26 /// SNORD27 /// SNORD28 /// SNORD29 /// SNORD31 / Fold change vs veh, SNHG1 /// SNORD22 /// SNORD25 /// SNORD26 /// SNORD27 /// SNORD28 /// SNORD29 /// SNORD31 / Fold change (Aza/veh), C12orf56 (ProbeSet 11735607_a_at) / Fold change (ACY-1035/veh), C12orf56 (ProbeSet 11735607_a_at) / Fold change (Aza/veh), FGFR1OP (ProbeSet 11751329_s_at) / Fold change (ACY-1035/veh), FGFR1OP (ProbeSet 11751329_s_at) / Fold change (Aza/veh), VPS36 (ProbeSet 11739960_a_at) / Fold change (ACY-1035/veh), VPS36 (ProbeSet 11739960_a_at) / RFU SYPL1 (11715823_x_at) / Fold change /veh SYPL1 (11715823_x_at) / RFU IGFBP7 (11715501_s_at) / Fold change /veh IGFBP7 (11715501_s_at) / RFU REEP3 (11722064_at) / Fold change /veh REEP3 (11722064_at) / RFU IGLL1 (11728026_x_at) / Fold change /veh IGLL1 (11728026_x_at): dose or concentration left out as unconfirmed
Conditions: ProbeSet 11720154_at; LIST B

SMILES: Nc1ncn([C@@H]2O[C@H](CO)[C@@H](O)[C@H]2O)c(=O)n1 [azacitidine]
- Fold change vs veh, NRIP1: 0.86
